Experimental findings from US20230303494A1, “BENZYLAMINE DERIVATIVE, PREPARATION METHOD THEREFOR AND USE THEREOF” (ACADEMY OF MILITARY MEDICAL SCIENCES, priority 2020, published 2023) are described below.

Experiment [1] has as its system Human peripheral blood mononuclear cells (PBMCs). Description: Promotion of IFN-γ secretion in PBMCs treated with anti-CD3/anti-CD28 and PDL1/FC fusion protein (ELISA). Format: cell-based. The note with it: hPD-L1 10.0 μg/mL, 72 h. As to the method:
Human peripheral blood mononuclear cells (PBMCs) were isolated from 10-15 ml of whole blood of healthy volunteers using experimental human lymphocyte separation medium (TBD sciences). The cells were washed twice with normal saline and resuspended in buffer (RPMI 1640 complete medium containing 10% FBS, SIGMA) to count the cell density. The PBMCs were dispersed and placed in a 96-well plate, 1×10^5 cells and 50 μL of buffer per well. Anti-CD3 antibody (SIGMA) and anti-CD28 antibody (SIGMA) were mixed at a ratio of 1:1 to obtain an antibody mixture. The antibody mixture was added to the wells to ensure that the final concentration of antibody was 0.8 μg/mL. At the same time, PDL1/FC fusion protein (SINO BIOLOGICAL) was added to reach a final concentration of 10.0 μg/mL, and the compound to be tested was diluted with buffer and added to the wells to reach a final concentration of 0.1 μM or 1 μM. The mixed system was incubated at 37° C. and 5% CO2 for 72 h. The supernatant was collected, and the expression level of IFN-γ was measured by ELISA MAXTM Human IFN-γ Standard Kit (BioLegend), and the increase rate was calculated. Increase rate (%)=(expression amount of compound treatment−expression amount of PDL1 treatment)/expression amount of PDL1 treatment×100%

For experiment [2], the target named is PD-1/PD-L1 interaction (Homo sapiens (Human), UniProt Q9NZQ7). Description: PD-1/PD-L1 Binding Assay kit (Cisbio), HTRF. Conditions: 8-10 concentrations, read-out: IC50 of inhibition of PD-1/PD-L1 interaction.
The subject of experiment [3] is PBMCs cells. Kind of experiment: Cytotoxicity, Cell Titer-Glo, PBMCs cells. Format: cell-based. Conditions: Homo sapiens, PBMC; 24 hours incubation; read-out: PBMCs cells IC50 (cell death). The protocol: (§1) The raji (ATCC), raw (ATCC) and PBMCs cells were suspended in buffer (RPMI 1640 complete medium containing 10% FBS, SIGMA), respectively, and the cell density was counted. The cells were transferred to wells of a 96-well plate, ensuring that the cell density of each well was 1×10^4 cells/well, and incubated for 24 hours at 37° C., 5% CO2 with compounds at different concentrations (100 μM, 50 μM, 25 μM, 12.5 μM, 6.25 μM and 3.125 μM) and buffer control solution (0.2% DMSO). To each well, 100 μL of Cell Titer-Glo Luminescent Solution (Promega) was added and shaken for 10 minutes at room temperature, and then GloMax® Navigator System was used to measure the system […], and the cell death rate was calculated. Cell death rate (%)=(1−RLUcompound/RLUcontrol)×100%, and IC50 was determined from the inhibition curve.

Experiment [4] has as its target human PD-L1 (Homo sapiens (Human), UniProt Q9NZQ7). Kind of experiment: Biofilm interferometry (BLI, OctetRED) binding to human PD-L1/AVI. Conditions: 1:1 binding model; for koff: read-out: Kdis. As to the method: In the experiment, the instrument OctectRED of Fortebio Company based on biofilm interferometry (BLI) technology was used to capture human PD-L1/AVI with SA chips. The concentration of antigen PD-L1/AVI was diluted to 10 μg/mL with running buffer (PBS+0.02% Tween-20+2% DMSO), and the loading time was 300 s; similarly, the analyte was also diluted to the corresponding concentrations (20 nM, 10 nM, 5 nM, 2.5 nM, 1.25 nM, 0.625 nM, 0.3125 nM) with running buffer in gradient manner, and a buffer blank control group was set at the same time. The binding time of human PD-L1/AVI to the analyte was 180 s, and the dissociation time was 300 s; the chip was regenerated with 10 mM glycine HCl, pH 1.7 solution and repeated 5-second pulse for 3 times. The data were fitted to a 1:1 binding model to determine the equilibrium dissociation constant KD.

For experiment [5], the system named is Raw cells. Description: Cytotoxicity, Cell Titer-Glo, Raw cells. Format: cell-based. The note with it: 24 hours incubation; read-out: Raw cells IC50 (cell death). As to the method: as §1
In experiment [6] the test system is Raji cells. Description: Cytotoxicity, Cell Titer-Glo, Raji cells. It is filed as cell-based. Conditions: Homo sapiens, 24 hours incubation, read-out: Raji cells IC50 (cell death). As to the method:
as §1

Structures are written as SMILES. pIC50, pKd: −log10 of the molar value. A value given as a limit tells only on which side of the number the result lay.

Chain of human PD-L1 (Q9NZQ7 19-290): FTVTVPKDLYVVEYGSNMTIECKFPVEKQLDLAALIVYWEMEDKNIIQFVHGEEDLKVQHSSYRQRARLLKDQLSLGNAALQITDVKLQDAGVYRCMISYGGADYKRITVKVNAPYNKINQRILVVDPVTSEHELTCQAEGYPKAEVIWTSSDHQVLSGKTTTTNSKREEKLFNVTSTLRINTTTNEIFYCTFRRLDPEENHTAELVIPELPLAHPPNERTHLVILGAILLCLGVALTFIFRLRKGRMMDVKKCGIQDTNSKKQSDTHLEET
Chain of PD-1/PD-L1 interaction (Q9NZQ7 19-238): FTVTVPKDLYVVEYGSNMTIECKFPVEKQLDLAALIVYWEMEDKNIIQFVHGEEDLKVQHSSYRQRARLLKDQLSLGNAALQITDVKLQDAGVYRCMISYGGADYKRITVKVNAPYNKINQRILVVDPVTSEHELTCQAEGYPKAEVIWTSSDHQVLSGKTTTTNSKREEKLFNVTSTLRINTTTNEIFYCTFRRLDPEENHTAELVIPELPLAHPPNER

In the case of `COc1nc(OCc2cccc(-c3ccccc3)c2C)ccc1CNCCNC(C)=O` [BMS202], in experiment [1] (compound 0.1 μM), the IFN-γ was determined as 35100 pg/mL and the “Increase rate of IFN-γ expression vs PDL1 treatment” value (shortened to “Increase rate of IFN-γ expression”) worked out at 64.8%. Besides, in experiment [1] (compound 1.0 μM), the IFN-γ was 39100 pg/mL and the “Increase rate of IFN-γ expression” value was found to be 83.6%.

In the case of `CC(=O)NCCNCc1ccc(NCc2cccc(-c3ccccc3)c2C)cc1OCc1cccc(C#N)c1` [Compound 1], in experiment [2], the pIC50 is 5.31.

Consider `Cc1c(CNc2ccc(CNCCO)c(OCc3cccc(C#N)c3)c2)cccc1-c1ccccc1` [Compound 2], for which the pIC50 in experiment [2] is 5.43.

For `Cc1c(CNc2ccc(CNC(CO)CO)c(OCc3cccc(C#N)c3)c2)cccc1-c1ccccc1` [Compound 3], in experiment [2], the pIC50 is 5.59.

As to `Cc1c(CNc2ccc(CN[C@H](CO)C(=O)O)c(OCc3cccc(C#N)c3)c2)cccc1-c1ccccc1` [Compound 4], the pIC50 in experiment [3] is less than 4.00; in experiment [2], 5.94; in experiment [5], less than 4.00; in experiment [6], less than 4.00. This compound showed a negative logarithm of the Kd (pKd) in experiment [4] of 8.74. Further, the on-rate constant (kon) in experiment [4] worked out at 651000 M⁻¹ s⁻¹. The koff in experiment [4] was 0.00118 s⁻¹.

For `Cc1cc(NCc2cccc(-c3ccccc3)c2C)cc(OCc2cccc(C#N)c2)c1CN[C@H](CO)C(=O)O` [Compound 6], the pIC50 in experiment [2] is 6.36.

Regarding `Cc1cc(NCc2cccc(-c3ccccc3)c2C)cc(OCc2cncc(C#N)c2)c1CN[C@H](CO)C(=O)O` [Compound 7], the pIC50 in experiment [2] is 6.44.

Regarding `COc1cc(NCc2cccc(-c3ccccc3)c2C)cc(OCc2cccc(C#N)c2)c1CN[C@H](CO)C(=O)O` [Compound 8], the pIC50 is less than 4.00 in experiment [3], 6.17 in experiment [2], less than 4.00 in experiment [5] and less than 4.00 in experiment [6].

`COc1nc(NCc2cccc(-c3ccccc3)c2C)ccc1CNCCNC(C)=O` [Compound 9]: in experiment [2], the pIC50 is 5.37.

`COc1cc(NCc2cccc(-c3ccccc3)c2C)c(Cl)cc1CN[C@H](CO)C(=O)O` [Compound 11]: in experiment [4], the pKd was 9.29, the kon was found to be 1.29e+06 M⁻¹ s⁻¹ and the koff is 0.000664 s⁻¹. In experiment [2], the pIC50 is 6.97.

Turning to `COc1nc(NCc2cccc(-c3ccccc3)c2C)ccc1CN[C@H](CO)C(=O)O` [Compound 12], the pIC50 in experiment [2] is 5.34.

Consider `COc1cc(NCc2cccc(-c3ccccc3)c2C)c(C)cc1CNC(CO)C(=O)O` (centres unmarked) [Compound 14], for which the pIC50 in experiment [3], in experiment [5] and in experiment [6] was less than 4.00 throughout.

For the compound `COc1cc(NCc2cccc(-c3ccccc3)c2C)ncc1CN[C@H](CO)C(=O)O` [Compound 15], the pIC50 in experiment [2] is 5.58.

As to `Cc1cc(CN[C@H](CO)C(=O)O)c(OCc2cccnc2)cc1NCc1cccc(-c2ccccc2)c1C` [Compound 17], the pIC50 in experiment [3] was less than 4.00; in experiment [2], 7.04; in experiment [5], 4.21; in experiment [6], 4.10.

With `Cc1cc(CN[C@@H](CO)CC(=O)O)c(OCc2cncc(C#N)c2)cc1NCc1cccc(-c2ccccc2)c1C` [Compound 18], the pIC50 in experiment [2] was 7.64.

Take `Cc1cc(CN[C@H](CO)C(=O)O)c(OCc2cccc(C#N)c2)cc1NCc1cccc(-c2ccccc2)c1C` [Compound 19]: the pIC50 in experiment [2] was 6.78.

Consider `CCOc1cc(NCc2cccc(-c3ccccc3)c2C)c(C)cc1CN[C@H](CO)C(=O)O` [Compound 20], for which the pIC50 in experiment [2] is 6.46.

As for `Cc1cc(CN2C[C@H](O)C[C@H]2C(=O)O)c(OCc2cncc(C#N)c2)cc1NCc1cccc(-c2ccccc2)c1C` [Compound 21], the pIC50 is 4.12 in experiment [3], 7.62 in experiment [2], 4.05 in experiment [5] and less than 4.00 in experiment [6].

Take `Cc1cc(CNC[C@@H](O)CC(=O)O)c(OCc2cncc(C#N)c2)cc1NCc1cccc(-c2ccccc2)c1C` [Compound 22]: the pIC50 in experiment [2] was 7.77.

Turning to `Cc1cc(CN2C[C@@H](O)CC2=O)c(OCc2cncc(C#N)c2)cc1NCc1cccc(-c2ccccc2)c1C` [Compound 23], in experiment [2], the pIC50 was 7.44.

For the compound `Cc1cc(CN[C@H](CCO)C(=O)O)c(OCc2cncc(C#N)c2)cc1NCc1cccc(-c2ccccc2)c1C` [Compound 24], the pIC50 in experiment [2] was 5.87.

With `Cc1cc(CN[C@H](CC(N)=O)C(=O)O)c(OCc2cncc(C#N)c2)cc1NCc1cccc(-c2ccccc2)c1C` [Compound 25], in experiment [2], the pIC50 was 7.33.

On to `Cc1c(CN(C)c2ccc(CN[C@H](CO)C(=O)O)c(OCc3cccc(C#N)c3)c2)cccc1-c1ccccc1` [Compound 26], for which, in experiment [2], the pIC50 is less than 4.00.

Consider `Cc1c(CN(C)c2ccc(CNCCO)c(OCc3cccc(C#N)c3)c2)cccc1-c1ccccc1` [Compound 27], for which the pIC50 in experiment [3] is less than 4.00; in experiment [2] it was 4.65; in experiment [5], less than 4.00; in experiment [6] it was 4.08.

With `Cc1c(NCc2ccc(CN[C@H](CO)C(=O)O)c(OCc3cncc(C#N)c3)c2)cccc1-c1ccccc1` [Compound 28], the pIC50 in experiment [2] is 6.72.

Consider `Cc1cc(CN[C@H](CO)C(=O)O)c(OCc2cncc(C#N)c2)cc1NCc1cccc(-c2ccccc2)c1C(F)(F)F` [Compound 29], for which the pIC50 in experiment [2] was 6.21.

`N#Cc1cncc(COc2cc(NCc3cccc(-c4ccccc4)c3C(F)(F)F)ccc2CN[C@H](CO)C(=O)O)c1` [Compound 30]: the pIC50 in experiment [2] is 5.53.

Regarding `N#Cc1cncc(COc2cc(NCc3cccc(-c4ccccc4)c3Br)ccc2CNC(CO)C(=O)O)c1` (centres unmarked) [Compound 31], the pIC50 in experiment [3], in experiment [5] and in experiment [6] was less than 4.00 throughout.

Regarding `N#Cc1cccc(COc2cc(NCc3cccc(-c4ccccc4)c3Br)ccc2CNC(CO)C(=O)O)c1` (centres unmarked) [Compound 33], the pIC50 in experiment [2] is 6.20.

With `Cc1c(CNc2ccc(CN[C@H](CO)C(=O)O)c(OCc3cccc(C#N)c3)c2)cccc1-c1ccc2c(c1)OCCO2` [Compound 34], the pIC50 is less than 4.00 in experiment [3], 6.36 in experiment [2], less than 4.00 in experiment [5] and 4.04 in experiment [6].

For `Cc1c(COc2ccc(CNC(CO)C(=O)O)c(OCc3cncc(C#N)c3)c2)cccc1-c1ccccc1` (centres unmarked) [Compound 37, reference compound], in experiment [3], the pIC50 is 4.77. In experiment [4], the pKd is 7.17, the on-rate (kon) is 12600 M⁻¹ s⁻¹ and the koff was 0.000851 s⁻¹. In experiment [1] (compound 0.1 μM), the IFN-γ was 23200 pg/mL and the “Increase rate of IFN-γ expression” value worked out at 8.9%. In experiment [1] (compound 1.0 μM), the IFN-γ was 25100 pg/mL and the “Increase rate of IFN-γ expression” value was 17.8%. Besides, the pIC50 in experiment [5] was 4.51. The pIC50 in experiment [6] is 4.65.

`Cc1c(COc2ccc(CN[C@H](CO)C(=O)O)c(OCc3cncc(C#N)c3)c2)cccc1-c1ccccc1` [Compound 37, reference compound]: the pIC50 in experiment [2] is 6.49.

For `Cc1c(C#N)cncc1COc1cc(OCc2cccc(-c3ccccc3)c2C)ccc1CNC(CO)C(=O)O` (centres unmarked) [Compound 38, reference compound], the pIC50 in experiment [3] was 4.58; in experiment [5] it was 4.54; in experiment [6], 4.49. The results for the IFN-γ in experiment [1] (compound 0.1 μM) and in experiment [1] (compound 1.0 μM) were 23300 pg/mL and 22600 pg/mL, respectively. The “Increase rate of IFN-γ expression” value is reported as 9.4% in experiment [1] (compound 0.1 μM) and 6.1% in experiment [1] (compound 1.0 μM).

For `Cc1c(C#N)cncc1COc1cc(OCc2cccc(-c3ccccc3)c2C)ccc1CN[C@H](CO)C(=O)O` [Compound 38, reference compound], the pIC50 in experiment [2] is 5.98.
